The record followed here is patent US20240150360A1 (THE REGENTS OF THE UNIVERSITY OF MICHIGAN, priority 2021, published 2024).

Usually DC50 stands for the midpoint of the concentration-degradation curve. High values mean degradation only at high concentration, low ones degradation at low concentration. The IC50 is the concentration needed to halve the response being measured.

Structures are written as SMILES.

The target of one assay is T1, P300 (Homo sapiens, UniProt Q09472).
T1 construct: endogenous in cells; host or cells: 22Rv1 (ATCC CRL-2505) human prostate cancer cells
T1 sequence (Q09472 whole entry): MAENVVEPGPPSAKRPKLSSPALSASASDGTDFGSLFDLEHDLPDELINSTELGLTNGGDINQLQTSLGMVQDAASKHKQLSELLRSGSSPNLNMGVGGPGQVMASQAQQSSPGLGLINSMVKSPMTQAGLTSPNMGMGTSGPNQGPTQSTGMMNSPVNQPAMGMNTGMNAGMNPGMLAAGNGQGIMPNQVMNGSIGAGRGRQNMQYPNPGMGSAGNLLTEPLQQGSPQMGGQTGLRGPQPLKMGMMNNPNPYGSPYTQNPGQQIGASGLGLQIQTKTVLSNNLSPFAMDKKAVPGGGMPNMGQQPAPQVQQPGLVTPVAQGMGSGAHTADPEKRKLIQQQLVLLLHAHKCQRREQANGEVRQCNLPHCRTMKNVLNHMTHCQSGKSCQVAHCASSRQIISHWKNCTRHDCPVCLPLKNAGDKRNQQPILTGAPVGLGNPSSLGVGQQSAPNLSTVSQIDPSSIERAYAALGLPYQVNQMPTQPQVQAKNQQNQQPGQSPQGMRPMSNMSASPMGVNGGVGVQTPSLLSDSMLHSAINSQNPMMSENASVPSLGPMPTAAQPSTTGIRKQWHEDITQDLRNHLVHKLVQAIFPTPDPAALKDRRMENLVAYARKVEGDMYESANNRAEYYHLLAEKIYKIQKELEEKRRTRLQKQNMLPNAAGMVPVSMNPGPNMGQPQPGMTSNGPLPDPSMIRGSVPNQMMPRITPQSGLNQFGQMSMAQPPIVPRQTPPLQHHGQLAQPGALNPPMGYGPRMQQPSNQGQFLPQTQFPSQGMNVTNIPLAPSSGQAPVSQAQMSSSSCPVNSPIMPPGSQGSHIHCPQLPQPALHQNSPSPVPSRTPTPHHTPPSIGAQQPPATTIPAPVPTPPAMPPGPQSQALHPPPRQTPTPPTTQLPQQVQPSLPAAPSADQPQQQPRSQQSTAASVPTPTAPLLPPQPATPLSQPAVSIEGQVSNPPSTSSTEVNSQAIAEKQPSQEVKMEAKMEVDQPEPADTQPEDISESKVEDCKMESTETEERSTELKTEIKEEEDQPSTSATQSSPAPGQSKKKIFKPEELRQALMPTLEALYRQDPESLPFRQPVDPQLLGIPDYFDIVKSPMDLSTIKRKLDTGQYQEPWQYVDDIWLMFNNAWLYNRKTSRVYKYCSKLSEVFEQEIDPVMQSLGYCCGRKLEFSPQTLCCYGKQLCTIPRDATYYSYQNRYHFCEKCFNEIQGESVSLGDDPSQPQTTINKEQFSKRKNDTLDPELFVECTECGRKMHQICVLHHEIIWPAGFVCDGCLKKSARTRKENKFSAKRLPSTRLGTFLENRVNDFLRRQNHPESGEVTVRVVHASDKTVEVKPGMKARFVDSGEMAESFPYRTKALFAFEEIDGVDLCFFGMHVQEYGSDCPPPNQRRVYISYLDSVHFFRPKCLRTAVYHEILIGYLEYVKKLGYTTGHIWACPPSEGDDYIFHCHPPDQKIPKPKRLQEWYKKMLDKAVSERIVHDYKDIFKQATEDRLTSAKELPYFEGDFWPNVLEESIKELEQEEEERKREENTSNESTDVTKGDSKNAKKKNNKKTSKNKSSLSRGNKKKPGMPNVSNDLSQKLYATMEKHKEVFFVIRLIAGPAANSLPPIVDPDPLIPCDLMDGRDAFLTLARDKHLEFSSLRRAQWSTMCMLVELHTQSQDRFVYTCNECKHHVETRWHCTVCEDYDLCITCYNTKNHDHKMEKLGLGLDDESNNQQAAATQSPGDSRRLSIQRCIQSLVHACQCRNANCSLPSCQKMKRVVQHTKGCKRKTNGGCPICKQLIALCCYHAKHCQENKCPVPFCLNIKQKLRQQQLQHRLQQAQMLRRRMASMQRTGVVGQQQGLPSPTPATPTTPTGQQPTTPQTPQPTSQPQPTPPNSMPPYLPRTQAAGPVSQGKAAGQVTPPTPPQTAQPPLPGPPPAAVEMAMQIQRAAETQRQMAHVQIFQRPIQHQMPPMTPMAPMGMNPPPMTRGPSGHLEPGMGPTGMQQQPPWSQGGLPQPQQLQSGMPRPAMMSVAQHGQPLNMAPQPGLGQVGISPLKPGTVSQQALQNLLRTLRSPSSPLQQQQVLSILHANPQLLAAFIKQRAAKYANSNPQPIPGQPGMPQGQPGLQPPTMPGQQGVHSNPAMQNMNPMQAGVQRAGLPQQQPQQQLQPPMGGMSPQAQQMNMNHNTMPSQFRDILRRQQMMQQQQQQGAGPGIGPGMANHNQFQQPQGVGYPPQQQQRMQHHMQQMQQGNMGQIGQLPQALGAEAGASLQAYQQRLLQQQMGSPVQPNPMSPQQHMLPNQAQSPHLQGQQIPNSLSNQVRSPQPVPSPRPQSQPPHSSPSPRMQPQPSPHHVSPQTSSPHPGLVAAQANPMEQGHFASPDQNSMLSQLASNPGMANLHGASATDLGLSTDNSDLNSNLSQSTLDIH
In words: P300 degradation in 22Rv1 cells (5 h). The class given is cell-based. The following applies: 22Rv1 cells, 5 h; for Dmax: read-out: P300 Degradation (22Rv1, 5 h) DCmax. An excerpt:
(§1) Biological Assays. […] Cells with 3-8 passages after purchase were used in experiments.

The target of a further assay is T2, CBP (Homo sapiens, UniProt Q92793).
T2 construct: endogenous in cells; host or cells: 22Rv1 (ATCC CRL-2505) human prostate cancer cells
T2 sequence (Q92793 whole entry): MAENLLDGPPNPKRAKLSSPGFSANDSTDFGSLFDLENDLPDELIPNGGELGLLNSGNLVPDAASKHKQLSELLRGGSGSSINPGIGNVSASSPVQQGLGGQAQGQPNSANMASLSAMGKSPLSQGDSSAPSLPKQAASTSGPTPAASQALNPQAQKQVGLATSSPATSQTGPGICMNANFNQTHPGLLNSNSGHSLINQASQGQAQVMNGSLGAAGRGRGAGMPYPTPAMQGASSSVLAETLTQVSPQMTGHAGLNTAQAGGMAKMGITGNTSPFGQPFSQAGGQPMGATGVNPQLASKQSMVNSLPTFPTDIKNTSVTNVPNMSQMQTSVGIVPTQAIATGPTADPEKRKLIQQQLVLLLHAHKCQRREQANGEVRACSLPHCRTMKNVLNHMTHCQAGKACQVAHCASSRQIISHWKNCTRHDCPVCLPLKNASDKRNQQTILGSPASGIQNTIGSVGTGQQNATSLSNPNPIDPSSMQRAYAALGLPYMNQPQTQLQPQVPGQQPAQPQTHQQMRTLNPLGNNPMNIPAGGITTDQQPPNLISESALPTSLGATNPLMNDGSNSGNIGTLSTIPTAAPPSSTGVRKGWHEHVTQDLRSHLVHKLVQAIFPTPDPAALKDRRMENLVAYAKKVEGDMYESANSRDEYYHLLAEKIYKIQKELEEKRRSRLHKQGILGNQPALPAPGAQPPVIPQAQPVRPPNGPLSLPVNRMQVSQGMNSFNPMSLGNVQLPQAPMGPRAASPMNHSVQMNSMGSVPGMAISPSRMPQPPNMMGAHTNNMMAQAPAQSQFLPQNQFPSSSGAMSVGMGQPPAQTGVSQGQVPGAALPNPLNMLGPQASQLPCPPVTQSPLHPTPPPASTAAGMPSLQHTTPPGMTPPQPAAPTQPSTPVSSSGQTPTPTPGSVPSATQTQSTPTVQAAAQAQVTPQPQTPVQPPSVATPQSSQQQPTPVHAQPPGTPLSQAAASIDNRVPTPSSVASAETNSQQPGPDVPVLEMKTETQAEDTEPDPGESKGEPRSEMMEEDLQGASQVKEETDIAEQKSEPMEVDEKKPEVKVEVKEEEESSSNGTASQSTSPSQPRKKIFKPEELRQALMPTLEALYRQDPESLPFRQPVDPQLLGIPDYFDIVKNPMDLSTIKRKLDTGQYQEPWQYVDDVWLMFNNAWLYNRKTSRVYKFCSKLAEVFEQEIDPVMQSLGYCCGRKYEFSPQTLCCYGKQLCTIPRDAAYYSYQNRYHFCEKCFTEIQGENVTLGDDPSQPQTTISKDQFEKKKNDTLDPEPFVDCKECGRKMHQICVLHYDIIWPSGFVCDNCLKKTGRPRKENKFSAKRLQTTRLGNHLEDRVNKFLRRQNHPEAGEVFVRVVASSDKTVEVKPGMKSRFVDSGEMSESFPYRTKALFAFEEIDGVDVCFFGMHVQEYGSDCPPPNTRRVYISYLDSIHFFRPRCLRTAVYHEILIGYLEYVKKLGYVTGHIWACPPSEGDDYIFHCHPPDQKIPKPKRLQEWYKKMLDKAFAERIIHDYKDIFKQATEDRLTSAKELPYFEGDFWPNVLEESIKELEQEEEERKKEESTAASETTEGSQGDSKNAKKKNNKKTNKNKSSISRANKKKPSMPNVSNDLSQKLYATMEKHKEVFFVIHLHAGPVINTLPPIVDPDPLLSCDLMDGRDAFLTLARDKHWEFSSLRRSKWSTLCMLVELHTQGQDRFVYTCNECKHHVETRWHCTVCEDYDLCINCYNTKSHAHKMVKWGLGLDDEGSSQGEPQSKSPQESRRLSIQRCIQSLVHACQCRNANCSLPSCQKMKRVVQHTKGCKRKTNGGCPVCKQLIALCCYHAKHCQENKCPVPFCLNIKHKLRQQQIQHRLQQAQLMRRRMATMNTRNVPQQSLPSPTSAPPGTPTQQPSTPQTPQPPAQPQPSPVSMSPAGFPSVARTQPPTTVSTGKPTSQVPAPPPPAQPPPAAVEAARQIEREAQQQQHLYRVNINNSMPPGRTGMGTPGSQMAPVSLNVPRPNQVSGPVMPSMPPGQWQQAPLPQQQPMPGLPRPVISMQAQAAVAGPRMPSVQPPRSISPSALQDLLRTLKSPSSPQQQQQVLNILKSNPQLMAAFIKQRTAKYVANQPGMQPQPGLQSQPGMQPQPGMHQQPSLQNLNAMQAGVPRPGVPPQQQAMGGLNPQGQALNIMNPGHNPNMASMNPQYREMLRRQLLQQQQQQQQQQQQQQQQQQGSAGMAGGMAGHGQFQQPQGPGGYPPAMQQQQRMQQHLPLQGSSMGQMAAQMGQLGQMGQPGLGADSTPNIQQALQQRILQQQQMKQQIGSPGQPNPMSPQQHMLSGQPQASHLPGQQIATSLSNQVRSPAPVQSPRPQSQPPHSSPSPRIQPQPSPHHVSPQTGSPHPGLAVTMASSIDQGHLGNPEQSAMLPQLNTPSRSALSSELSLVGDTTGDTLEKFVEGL
The assay is described as follows: CBP degradation in 22Rv1 cells (5 h). The class given is cell-based. As to conditions: 22Rv1 cells, 5 h; for Dmax: 22Rv1, 5 h, read-out: CBP Degradation (22Rv1, 5 h) DCmax.
Description: as §1

The subject of the next assay is HL60. In words: Cell growth inhibition in HL60. The following applies: Homo sapiens, HL-60, HL60 cells; read-out: Cell Growth Inhibition (IC50) HL60. It counts as cell-based.
A further assay deals with 22Rv1 cells. In words: Cell growth inhibition assay (CellTiter-Glo) in 22Rv1. The following applies: Homo sapiens, 22Rv1, 96 h, 22Rv1 cells, 96 h incubation; read-out: Cell Growth Inhibition (IC50) 22Rv1. The class given is cell-based, human. Summed up:
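22Rv1 prostate cancer cells (passages 3-8, DMEM with 10% FBS) were seeded at 4000 cells/well with compound, 3-fold dilutions from 10 μM final. After 96 h at 37° C and 5% CO2, growth was read by CellTiter-Glo 2.0 luminescence.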
For orientation: ATP-based viability assays read luminescence as a measure of living cells.

On to `CC(=O)N1CCc2c(c(N3CCCc4cc(-c5cnn(C)c5)c(C(F)F)cc43)nn2C2CCC(C(C)CN3Cc4cc5c(cc4C3)C(=O)N(C3CCC(=O)NC3=O)C5=O)CC2)C1` (stereo not drawn) [CP-051, 6-(2-(4-(5-acetyl-3-(7-(difluoromethyl)-6-(1-methyl-1H-pyrazol-4-yl)-3,4-dihydroquinolin-1(2H)-yl)-4,5,6,7-tetrahydro-1H-pyrazolo[4,3-c]pyridin-1-yl)cyclohexyl)propyl)-2-(2,6-dioxopiperidin-3-yl)-6,7-dihydropyrrolo[3,4-f]isoindole-1,3(2H,5H)-dione], for which the DC50 on P300 and at CBP was less than 0.01 µM each time. For the same compound, the Dmax on P300 and on CBP was greater than 90% in each case. The IC50 with HL60 and in the assay on 22Rv1 cells was less than 0.1 µM in each case.

For `CC(=O)c1cc2c(cc1C(F)F)N(c1nn(C3CCN(C(=O)CN4CCc5cc6c(cc5C4)C(=O)N(C4CCC(=O)NC4=O)C6=O)CC3)c3c1CN(C(C)=O)CC3)CCC2` (stereo not drawn) [CP-020, 6-(2-(4-(5-acetyl-3-(6-acetyl-7-(difluoromethyl)-3,4-dihydroquinolin-1(2H)-yl)-4,5,6,7-tetrahydro-1H-pyrazolo[4,3-c]pyridin-1-yl)piperidin-1-yl)-2-oxoethyl)-2-(2,6-dioxopiperidin-3-yl)-5,6,7,8-tetrahydro-1H-pyrrolo[3,4-g]isoquinoline-1,3(2H)-dione], the 50% degradation concentration (DC50) on P300 and on CBP was greater than 1 µM each time. Also, the Dmax on P300 and at CBP was less than 50% in each case. The IC50 is less than 1 µM in the assay on HL60 and greater than 10 µM with 22Rv1 cells.

As for `CC(=O)N1CCc2c(c(N3CCCc4cc(Cl)c(C(F)F)cc43)nn2C2CCN(C(=O)CN3Cc4cc5c(cc4C3)C(=O)N(C3CCC(=O)NC3=O)C5=O)CC2)C1` (stereo not drawn) [CP-017, 6-(2-(4-(5-acetyl-3-(6-chloro-7-(difluoromethyl)-3,4-dihydroquinolin-1(2H)-yl)-4,5,6,7-tetrahydro-1H-pyrazolo[4,3-c]pyridin-1-yl)piperidin-1-yl)-2-oxoethyl)-2-(2,6-dioxopiperidin-3-yl)-6,7-dihydropyrrolo[3,4-f]isoindole-1,3(2H,5H)-dione], the half-maximal degradation concentration (DC50) on P300 and on CBP was greater than 1 µM throughout. Also, the Dmax on P300 and on CBP was less than 50% each time. Also, the IC50 with HL60 and in the assay on 22Rv1 cells was greater than 10 µM each time.

For `CC(=O)N1CCc2c(c(N3CCCc4cc5c(cc43)C(C)CCC5)nn2C2CCN(C(=O)CN3Cc4cc5c(cc4C3)C(=O)N(C3CCC(=O)NC3=O)C5=O)CC2)C1` (stereo not drawn) [CP-079, 6-(2-(4-(5-acetyl-3-(9-methyl-3,4,6,7,8,9-hexahydrobenzo[g]quinolin-1(2H)-yl)-4,5,6,7-tetrahydro-1H-pyrazolo[4,3-c]pyridin-1-yl)piperidin-1-yl)-2-oxoethyl)-2-(2,6-dioxopiperidin-3-yl)-6,7-dihydropyrrolo[3,4-f]isoindole-1,3(2H,5H)-dione], the 50% degradation concentration (DC50) at P300 and on CBP was less than 0.1 µM in each case. In addition, the Dmax is greater than 70% on P300 and greater than 90% on CBP. The half-inhibitory concentration (IC50) in the assay on HL60 is less than 0.1 µM; in the assay on 22Rv1 cells, less than 1 µM.

Take `CC(=O)N1CCc2c(c(N3CCCc4cc5c(cc43)C(C)(C)CCC5)nn2C2CCN(C(=O)CN3Cc4cc5c(cc4C3)C(=O)N(C3CCC(=O)NC3=O)C5=O)CC2)C1` (stereo not drawn) [CP-083, 6-(2-(4-(5-acetyl-3-(9,9-dimethyl-3,4,6,7,8,9-hexahydrobenzo[g]quinolin-1(2H)-yl)-4,5,6,7-tetrahydro-1H-pyrazolo[4,3-c]pyridin-1-yl)piperidin-1-yl)-2-oxoethyl)-2-(2,6-dioxopiperidin-3-yl)-6,7-dihydropyrrolo[3,4-f]isoindole-1,3(2H,5H)-dione]: the DC50 on P300 and on CBP was greater than 1 µM in each case. Further, the Dmax on P300 and on CBP was less than 50% throughout. The half-inhibitory concentration (IC50) with HL60 and with 22Rv1 cells was greater than 10 µM in each case.

For `CC(=O)N1CCc2c(c(N3CCCc4cc(C)c(C(F)F)cc43)nn2C2CCN(C(=O)CN3Cc4cc5c(cc4C3)C(=O)N(C3CCC(=O)NC3=O)C5=O)CC2)C1` (stereo not drawn) [CP-011, 6-(2-(4-(5-acetyl-3-(7-(difluoromethyl)-6-methyl-3,4-dihydroquinolin-1(2H)-yl)-4,5,6,7-tetrahydro-1H-pyrazolo[4,3-c]pyridin-1-yl)piperidin-1-yl)-2-oxoethyl)-2-(2,6-dioxopiperidin-3-yl)-6,7-dihydropyrrolo[3,4-f]isoindole-1,3(2H,5H)-dione], the half-maximal degradation concentration (DC50) at P300 and at CBP was less than 0.01 µM in each case. Besides, the Dmax on P300 was greater than 70%; on CBP, greater than 90%. Besides, the half-maximal inhibitory concentration (IC50) with HL60 and in the assay on 22Rv1 cells was less than 1 µM throughout.

With `CC(=O)N1CCc2c(c(N3CCCc4cc(CCC5CC5)c(C(F)F)cc43)nn2C2CCN(C(=O)CN3Cc4cc5c(cc4C3)C(=O)N(C3CCC(=O)NC3=O)C5=O)CC2)C1` (stereo not drawn) [CP-025, 6-(2-(4-(5-acetyl-3-(6-(2-cyclopropylethyl)-7-(difluoromethyl)-3,4-dihydroquinolin-1(2H)-yl)-4,5,6,7-tetrahydro-1H-pyrazolo[4,3-c]pyridin-1-yl)piperidin-1-yl)-2-oxoethyl)-2-(2,6-dioxopiperidin-3-yl)-6,7-dihydropyrrolo[3,4-f]isoindole-1,3(2H,5H)-dione], the 50% degradation concentration (DC50) on P300 and on CBP was less than 0.01 µM throughout. Also, the Dmax was greater than 70% at P300 and less than 50% on CBP. Also, the IC50 with HL60 is less than 0.1 µM; in the assay on 22Rv1 cells, less than 1 µM.

As for `CC(=O)c1cc2c(cc1C(F)F)N(c1nn(C3CCN(C(=O)CN4Cc5cc6c(cc5C4)C(=O)N(C4CCC(=O)NC4=O)C6=O)CC3)c3c1CN(C(C)=O)CC3)CCC2` (stereo not drawn) [CP-019, 6-(2-(4-(5-acetyl-3-(6-acetyl-7-(difluoromethyl)-3,4-dihydroquinolin-1(2H)-yl)-4,5,6,7-tetrahydro-1H-pyrazolo[4,3-c]pyridin-1-yl)piperidin-1-yl)-2-oxoethyl)-2-(2,6-dioxopiperidin-3-yl)-6,7-dihydropyrrolo[3,4-f]isoindole-1,3(2H,5H)-dione], the 50% degradation concentration (DC50) on P300 and at CBP was greater than 1 µM throughout. Moreover, the Dmax at P300 and at CBP was less than 50% throughout. Also, the IC50 was less than 1 µM in the assay on HL60 and greater than 10 µM in the assay on 22Rv1 cells.

For the compound `CC(=O)N1CCc2c(c(-c3cccc4ccncc34)nn2C2CCN(C(=O)CN3Cc4cc5c(cc4C3)C(=O)N(C3CCC(=O)NC3=O)C5=O)CC2)C1` (stereo not drawn) [CP-082, 6-(2-(4-(5-acetyl-3-(isoquinolin-8-yl)-4,5,6,7-tetrahydro-1H-pyrazolo[4,3-c]pyridin-1-yl)piperidin-1-yl)-2-oxoethyl)-2-(2,6-dioxopiperidin-3-yl)-6,7-dihydropyrrolo[3,4-f]isoindole-1,3(2H,5H)-dione], the half-maximal degradation concentration (DC50) at P300 and on CBP was greater than 1 µM throughout. Further, the Dmax on P300 and at CBP was less than 50% throughout. Also, the IC50 with HL60 and with 22Rv1 cells was greater than 10 µM throughout.
